In patent publication US20260092074A1, “Annelated Pyridines as Steroidogenesis Inhibitors, Preparation Method and Use Thereof” (Guangzhou Vinnocent Pharmaceutical Limited, priority 2022, published 2026) one finds IC50 data, which are given here for 24 molecules.

One assay deals with T1, human CYP11B2 (Homo sapiens, UniProt P19099).
T1 construct: expressed in transfected cells
T1 sequence (P19099 25-503): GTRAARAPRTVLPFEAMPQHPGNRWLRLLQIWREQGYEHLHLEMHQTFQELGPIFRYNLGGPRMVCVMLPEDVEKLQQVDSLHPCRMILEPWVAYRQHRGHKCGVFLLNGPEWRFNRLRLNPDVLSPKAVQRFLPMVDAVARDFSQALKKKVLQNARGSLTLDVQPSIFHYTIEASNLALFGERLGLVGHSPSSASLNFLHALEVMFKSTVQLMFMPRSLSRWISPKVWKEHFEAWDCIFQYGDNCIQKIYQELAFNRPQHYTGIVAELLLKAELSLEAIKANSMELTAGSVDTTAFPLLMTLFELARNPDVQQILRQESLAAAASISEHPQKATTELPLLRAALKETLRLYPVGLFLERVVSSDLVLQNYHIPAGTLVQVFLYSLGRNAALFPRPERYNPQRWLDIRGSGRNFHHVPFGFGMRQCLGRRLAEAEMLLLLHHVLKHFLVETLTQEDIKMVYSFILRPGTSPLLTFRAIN
The assay can be described thus: Inhibition of hCYP11B2 in transfected V79 cells. In kind it is cell-based. The conditions noted are these: hamster V79 cells expressing human CYP11B2; substrate 11-deoxycorticosterone 200 nM. In a few lines:
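Hamster V79 cells stably co-expressing human CYP11B2 and rat NADPH-P450 reductase were pre-incubated with compounds for 2 hours, then given 200 nM 11-deoxycorticosterone for 30 minutes before ethyl acetate quench. Substrate and product were quantified by LC-MS/MS or HPLC at 260 nm, and IC50 was derived from percent inhibition.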

In another assay the target is T2, human CYP11B1 (Homo sapiens, UniProt P15538).
T2 construct: expressed in transfected cells
T2 sequence (P15538 25-503): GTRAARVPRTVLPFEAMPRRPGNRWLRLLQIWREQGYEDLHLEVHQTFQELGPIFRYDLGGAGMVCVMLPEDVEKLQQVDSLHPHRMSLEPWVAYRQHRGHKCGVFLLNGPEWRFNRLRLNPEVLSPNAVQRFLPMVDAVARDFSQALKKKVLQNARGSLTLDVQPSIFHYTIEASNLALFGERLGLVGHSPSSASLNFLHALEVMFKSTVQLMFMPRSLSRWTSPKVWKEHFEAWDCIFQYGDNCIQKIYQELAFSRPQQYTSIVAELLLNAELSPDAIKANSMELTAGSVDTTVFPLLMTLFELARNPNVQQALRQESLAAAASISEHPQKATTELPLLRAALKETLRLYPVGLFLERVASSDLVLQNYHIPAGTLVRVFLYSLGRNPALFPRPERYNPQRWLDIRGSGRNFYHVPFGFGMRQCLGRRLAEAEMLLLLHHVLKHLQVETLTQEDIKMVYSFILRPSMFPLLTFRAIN
Briefly: Inhibition of hCYP11B1 in transfected V79 cells. In kind it is cell-based. The conditions noted are these: hamster V79 cells expressing human CYP11B1; substrate 11-deoxycortisol 200 nM. A digest of the protocol: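 V79 hamster cells stably expressing human CYP11B1 and rat NADPH-P450 reductase were preincubated with compounds for 2 h. 11-Deoxycortisol (200 nM) was then added as substrate for 30 min before ethyl acetate quench. Substrate and product were quantified by LC-MS/MS or HPLC at 260 nm, and IC50 was derived from percent inhibition.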

Broadly, the IC50 is the concentration that inhibits the measured activity by half. A lower IC50 goes with inhibition by little substance.

Regarding `N#Cc1ccc(S(=O)(=O)N2CCSc3c(-c4cc5cc(Cl)ccc5o4)cncc32)cc1` [S41, 4-((8-(5-Chlorobenzofuran-2-yl)-2,3-dihydro-4H-pyrido[4,3-b][1,4]thiazin-4-yl)sulfonyl) benzonitrile], the IC50 at human CYP11B2 came out at 0.4 nM; on human CYP11B1, 99 nM.
On the same counts, the results for `N#Cc1ccc(S(=O)(=O)N2CCSc3c(-c4cc5cc(C#N)ccc5o4)cncc32)cc1` [S42, 2-(4-((4-Cyanophenyl)sulfonyl)-3,4-dihydro-2H-pyrido[4,3-b][1,4]thiazin-8-yl)benzofuran-5-carbonitrile] are 0.3 nM and 24 nM.
The corresponding values for `N#Cc1ccc(S(=O)(=O)N2CCSc3c(-c4cc5ccccc5s4)cncc32)cc1` [S43, 4-((8-(Benzo[b]thiophen-2-yl)-2,3-dihydro-4H-pyrido[4,3-b][1,4]thiazin-4-yl)sulfonyl)benzonitrile] are 6.5 nM and 621 nM.
Turning to `N#Cc1ccc(S(=O)(=O)N2CCSc3c(-c4ccc5occc5c4)cncc32)cc1` [S44, 4-((8-(Benzofuran-5-yl)-2,3-dihydro-4H-pyrido[4,3-b][1,4]thiazin-4-yl)sulfonyl)benzonitrile], the results for the IC50 against human CYP11B2 and against human CYP11B1 were 46 nM and 782 nM, respectively.
Take `Cn1ncc2ccc(-c3cncc4c3SCCN4S(=O)(=O)c3ccc(C#N)cc3)cc21` [S45, 4-((8-(1-Methyl-1H-indazol-6-yl)-2,3-dihydro-4H-pyrido[4,3-b][1,4]thiazin-4-yl)sulfonyl) benzonitrile]: the 50% inhibitory concentration (IC50) stood at 11.6 nM at human CYP11B2 and 1460 nM against human CYP11B1.
The corresponding values for `N#Cc1ccc(S(=O)(=O)N2CCSc3c(-c4ccc5ncsc5c4)cncc32)cc1` [S46, 4-((8-(Benzo[d]thiazol-6-yl)-2,3-dihydro-4H-pyrido[4,3-b][1,4]thiazin-4-yl)sulfonyl)benzonitrile] are 2.8 nM and 322 nM.
The corresponding values for `N#Cc1ccc(S(=O)(=O)N2CCSc3c(-c4ccc5[nH]ncc5c4)cncc32)cc1` [S48, 4-((8-(1H-Indazol-5-yl)-2,3-dihydro-4H-pyrido[4,3-b][1,4]thiazin-4-yl)sulfonyl)benzonitrile] are 25 nM and 14 nM.
On the same counts, the results for `N#Cc1ccc(S(=O)(=O)N2CCSc3c(-c4ccc5nc[nH]c5c4)cncc32)cc1` [S49, 4-((8-(1H-Benzo[d]imidazol-6-yl)-2,3-dihydro-4H-pyrido[4,3-b][1,4]thiazin-4-yl)sulfonyl)benzonitrile] are 27 nM and 7 nM.
Regarding `N#Cc1ccc(S(=O)(=O)N2CCSc3c(-c4ccn5ccnc5c4)cncc32)cc1` [S50, 4-((8-(Imidazo[1,2-a]pyridin-7-yl)-2,3-dihydro-4H-pyrido[4,3-b][1,4]thiazin-4-yl)sulfonyl)benzonitrile], the half-inhibitory concentration (IC50) on human CYP11B2 stood at 52 nM; at human CYP11B1, 298 nM.
For the molecule `N#Cc1ccc(S(=O)(=O)N2CCSc3c(-c4ccc5c(c4)CC(=O)N5)cncc32)cc1` [S51, 4-((8-(2-Oxoindolin-5-yl)-2,3-dihydro-4H-pyrido[4,3-b][1,4]thiazin-4-yl)sulfonyl)benzonitrile], the IC50 against human CYP11B2 came to 10.3 nM; at human CYP11B1, 1970 nM.
As to `CN1C(=O)CCc2cc(-c3cncc4c3SCCN4S(=O)(=O)c3ccc(C#N)cc3)cc(F)c21` [S52, 4-((8-(8-Fluoro-1-methyl-2-oxo-1,2,3,4-tetrahydroquinolin-6-yl)-2,3-dihydro-4H-pyrido[4,3-b][1,4]thiazin-4-yl)sulfonyl)benzonitrile], the IC50 against human CYP11B2 was found to be 32 nM; on human CYP11B1 it was 697 nM.
The corresponding values for `COc1ccc(S(=O)(=O)N2CCSc3c(-c4cc5cc(Cl)ccc5o4)cncc32)cn1` [S53, 8-(5-Chlorobenzofuran-2-yl)-4-((6-methoxypyridin-3-yl)sulfonyl)-3,4-dihydro-2H-pyrido[4,3-b][1,4]thiazine] are 0.9 nM and 72 nM.
On the same counts, the results for `O=S(=O)(c1ccc(O)nc1)N1CCSc2c(-c3cc4cc(Cl)ccc4o3)cncc21` [S54, 5-((8-(5-Chlorobenzofuran-2-yl)-2,3-dihydro-4H-pyrido[4,3-b][1,4]thiazin-4-yl)sulfonyl) pyridin-2-ol] are 16 nM and 549 nM.
For `Cn1cc(S(=O)(=O)N2CCSc3c(-c4cc5cc(Cl)ccc5o4)cncc32)cn1` [S55, 8-(5-Chlorobenzofuran-2-yl)-4-((1-methyl-1H-pyrazol-4-yl)sulfonyl)-3,4-dihydro-2H-pyrido[4,3-b][1,4]thiazine], the IC50 came to 0.2 nM at human CYP11B2 and 10.6 nM at human CYP11B1.
The corresponding values for `Cn1ccc(S(=O)(=O)N2CCSc3c(-c4cc5cc(Cl)ccc5o4)cncc32)n1` [S56, 8-(5-Chlorobenzofuran-2-yl)-4-((1-methyl-1H-pyrazol-3-yl)sulfonyl)-3,4-dihydro-2H-pyrido[4,3-b][1,4]thiazine] are 0.5 nM and 41 nM.
On to `CC(=O)Nc1nc(C)c(S(=O)(=O)N2CCSc3c(-c4cc5cc(Cl)ccc5o4)cncc32)s1` [S57, N-(5-((8-(5-Chlorobenzofuran-2-yl)-2,3-dihydro-4H-pyrido[4,3-b][1,4]thiazin-4-yl)sulfonyl)-4-methylthiazol-2-yl)acetamide], for which the IC50 turned out to be 3.9 nM against human CYP11B2 and 66 nM on human CYP11B1.
The corresponding values for `CC(=O)N1CCc2cc(S(=O)(=O)N3CCSc4c(-c5cc6cc(Cl)ccc6o5)cncc43)ccc21` [S58, 1-(5-((8-(5-Chlorobenzofuran-2-yl)-2,3-dihydro-4H-pyrido[4,3-b][1,4]thiazin-4-yl)sulfonyl)indolin-1-yl)ethan-1-one] are 2 nM and 27 nM.
Turning to `O=C1COc2ccc(S(=O)(=O)N3CCSc4c(-c5cc6cc(Cl)ccc6o5)cncc43)cc2N1` [S59, 6-((8-(5-Chlorobenzofuran-2-yl)-2,3-dihydro-4H-pyrido[4,3-b][1,4]thiazin-4-yl)sulfonyl)-2H-benzo[b][1,4]oxazin-3 (4H)-one], the IC50 on human CYP11B2 is 0.5 nM; on human CYP11B1, 48 nM.
On the same counts, the results for `O=S(=O)(c1ccc(Cl)s1)N1CCSc2c(-c3cc4cc(Cl)ccc4o3)cncc21` [S60, 8-(5-Chlorobenzofuran-2-yl)-4-((5-chlorothiophen-2-yl)sulfonyl)-3,4-dihydro-2H-pyrido-[4,3-b][1,4]thiazine] are 0.7 nM and 54 nM.
The corresponding values for `O=S(=O)(C1CCNCC1)N1CCSc2c(-c3cc4cc(Cl)ccc4o3)cncc21` [S61, 8-(5-Chlorobenzofuran-2-yl)-4-(piperidin-4-ylsulfonyl)-3,4-dihydro-2H-pyrido[4,3-b][1, 4]thiazine] are 21.7 nM and 688 nM.
On the same counts, the results for `O=S(=O)(C1CNC1)N1CCSc2c(-c3cc4cc(Cl)ccc4o3)cncc21` [S62, 4-(Azetidin-3-ylsulfonyl)-8-(5-chlorobenzofuran-2-yl)-3,4-dihydro-2H-pyrido[4,3-b][1,4]thiazine] are 7.2 nM and 516 nM.
In the case of `N#CN1CCC(S(=O)(=O)N2CCSc3c(-c4cc5cc(Cl)ccc5o4)cncc32)CC1` [S63, 4-((8-(5-Chlorobenzofuran-2-yl)-2,3-dihydro-4H-pyrido[4,3-b][1,4]thiazin-4-yl)sulfonyl) piperidine-1-carbonitrile], the values for the IC50 against human CYP11B2 and against human CYP11B1 were 10 nM and 792 nM, respectively.
The corresponding values for `N#CN1CC(S(=O)(=O)N2CCSc3c(-c4cc5cc(Cl)ccc5o4)cncc32)C1` [S64, 3-((8-(5-Chlorobenzofuran-2-yl)-2,3-dihydro-4H-pyrido[4,3-b][1,4]thiazin-4-yl)sulfonyl) azetidine-1-carbonitrile] are 4.5 nM and 755 nM.
The corresponding values for `N#CC12CC(S(=O)(=O)N3CCSc4c(-c5cc6cc(Cl)ccc6o5)cncc43)(C1)C2` [S65, 3-((8-(5-Chlorobenzofuran-2-yl)-2,3-dihydro-4H-pyrido[4,3-b][1,4]thiazin-4-yl)sulfonyl)bicyclo[1.1.1]pentane-1-carbonitrile] are 5 nM and 783 nM.
